Experimental data taken from PubChem BioAssay AID270 (DTP/NCI, 2004).
“And” between values parts separate entries of the source, which are not always exact repeats. Identical values can stand only once. Records with an inconclusive call do not appear.

System: BDF1 mice, s.c. Lewis lung carcinoma, T/C %
Test: NCI In Vivo Anticancer Drug Screen. Data for tumor model Lewis Lung Carcinoma (subcutaneous) in B6D2F1 (BDF1) mice
How it was run: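 Readout: survival or tumor size, expressed as treated (T) over vehicle control (C). Transplantable tumor implanted in mice; compound given to the treated group.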

CCCCC[C@H](O)/C=C/[C@@H]1[C@@H](C/C=C\CCCC(=O)O)[C@@H](O)C[C@H]1O
T/C (endpoint: median survival time, dose: 2.5 mg/kg/injection, schedule: Q04DX003 (ip), vehicle: saline, higher = longer survival): 118 % of control
T/C (endpoint: median survival time, dose: 5.0 mg/kg/injection, schedule: Q04DX003 (ip), vehicle: saline, higher = longer survival): 105 % of control
T/C (endpoint: median survival time, dose: 10.0 mg/kg/injection, schedule: Q04DX003 (ip), vehicle: saline, higher = longer survival): 95 % of control
T/C (endpoint: median survival time, dose: 20.0 mg/kg/injection, schedule: Q04DX003 (ip), vehicle: saline, higher = longer survival): 118 % of control
T/C (endpoint: median survival time, dose: 40.0 mg/kg/injection, schedule: Q04DX003 (ip), vehicle: saline, higher = longer survival): 87 % of control
T/C (endpoint: median survival time, dose: 80.0 mg/kg/injection, schedule: Q04DX003 (ip), vehicle: saline, higher = longer survival): 93 % of control
T/C (endpoint: median survival time, dose: 160.0 mg/kg/injection, schedule: Q04DX003 (ip), vehicle: saline, higher = longer survival): 87 % of control
T/C (endpoint: median survival time, dose: 320.0 mg/kg/injection, schedule: Q04DX003 (ip), vehicle: saline, higher = longer survival): 106 % of control

O=NN(CCF)C(=O)NC1CCSCC1
T/C (endpoint: median survival time, dose: 2.5 mg/kg/injection, schedule: Q01DX009 (ip), vehicle: saline with Tween-80, higher = longer survival): 114 % of control
T/C (endpoint: median survival time, dose: 2.5 mg/kg/injection, schedule: Q01DX009 (ip), vehicle: saline, higher = longer survival): 103 % of control
T/C (endpoint: median survival time, dose: 5.0 mg/kg/injection, schedule: Q01DX009 (ip), vehicle: saline with Tween-80, higher = longer survival): 191 % of control
T/C (endpoint: median survival time, dose: 5.0 mg/kg/injection, schedule: Q01DX009 (ip), vehicle: saline, higher = longer survival): 113 % of control
T/C (endpoint: median survival time, dose: 10.0 mg/kg/injection, schedule: Q01DX009 (ip), vehicle: saline, higher = longer survival): 204 % of control
T/C (endpoint: median survival time, dose: 13.0 mg/kg/injection, schedule: Q04DX004 (ip), vehicle: saline with Tween-80, higher = longer survival): 279 % of control
T/C (endpoint: median survival time, dose: 18.0 mg/kg/injection, schedule: Q04DX004 (ip), vehicle: saline with Tween-80, higher = longer survival): 194 % of control and 345 % of control
T/C (endpoint: median survival time, dose: 20.0 mg/kg/injection, schedule: Q01DX009 (ip), vehicle: saline, higher = longer survival): 108 % of control
T/C (endpoint: median survival time, dose: 23.0 mg/kg/injection, schedule: Q04DX004 (ip), vehicle: saline with Tween-80, higher = longer survival): 122 % of control
T/C (endpoint: median survival time, dose: 25.0 mg/kg/injection, schedule: Q07DX002 (ip), vehicle: saline with Tween-80, higher = longer survival): 190 % of control and 381 % of control
T/C (endpoint: median survival time, dose: 39.0 mg/kg/injection, schedule: Q07DX002 (ip), vehicle: saline with Tween-80, higher = longer survival): 198 % of control
T/C (endpoint: median tumor weight (est.), dose: 14.0 mg/kg/injection, schedule: Q01DX001 (ip), vehicle: saline with Tween-80, higher = larger tumour): 53 % of control
T/C (endpoint: median tumor weight (est.), dose: 27.0 mg/kg/injection, schedule: Q01DX001 (ip), vehicle: saline with Tween-80, higher = larger tumour): 8 % of control

Nc1ccccc1N
T/C (endpoint: median survival time, dose: 25.0 mg/kg/injection, schedule: Q02DX009 (ip), vehicle: saline with Tween-80, higher = longer survival): 112 % of control
T/C (endpoint: median survival time, dose: 50.0 mg/kg/injection, schedule: Q02DX009 (ip), vehicle: saline with Tween-80, higher = longer survival): 118 % of control
T/C (endpoint: median survival time, dose: 100.0 mg/kg/injection, schedule: Q02DX009 (ip), vehicle: saline with Tween-80, higher = longer survival): 97 % of control
T/C (endpoint: median survival time, dose: 200.0 mg/kg/injection, schedule: Q02DX009 (ip), vehicle: saline with Tween-80, higher = longer survival): 111 % of control

CN(C)[C@@H]1C(=O)C(C(N)=O)=C(O)[C@]2(O)C(=O)C3C(=O)c4c(O)ccc(Cl)c4[C@](C)(O)[C@H]3C[C@@H]12 (stereo not given in full)
T/C (endpoint: median survival time, dose: 12.5 mg/kg/injection, schedule: Q01DX009 (ip), vehicle: Klucel (hydroxypropylcellulose) (HPC), higher = longer survival): 117 % of control
T/C (endpoint: median survival time, dose: 25.0 mg/kg/injection, schedule: Q01DX009 (ip), vehicle: Klucel (hydroxypropylcellulose) (HPC), higher = longer survival): 120 % of control
T/C (endpoint: median survival time, dose: 50.0 mg/kg/injection, schedule: Q01DX009 (ip), vehicle: Klucel (hydroxypropylcellulose) (HPC), higher = longer survival): 102 % of control and 123 % of control

CC(=O)[C@@]1(O)CC[C@H]2[C@@H]3C[C@H](C)C4=CC(=O)C=C[C@]4(C)[C@@]3(F)[C@@H](O)C[C@@]21C
T/C (endpoint: mean tumor weight, dose: 25.0 mg/kg/injection, schedule: Q01DX011 (sc), vehicle: steriod suspending solution, higher = larger tumour): 28 % of control
T/C (endpoint: mean tumor weight, dose: 50.0 mg/kg/injection, schedule: Q01DX011 (sc), vehicle: steriod suspending solution, higher = larger tumour): 18 % of control

Cc1cc(O)c2cc3c(O)c(O)ccc3cc2c1
T/C (endpoint: mean tumor weight, dose: 0.25 mg/kg/injection, schedule: Q01DX011 (ip), vehicle: saline, higher = larger tumour): 86 % of control
T/C (endpoint: mean tumor weight, dose: 0.5 mg/kg/injection, schedule: Q01DX011 (ip), vehicle: saline, higher = larger tumour): 116 % of control
T/C (endpoint: mean tumor weight, dose: 1.0 mg/kg/injection, schedule: Q01DX011 (ip), vehicle: saline, higher = larger tumour): 62 % of control
T/C (endpoint: mean tumor weight, dose: 2.0 mg/kg/injection, schedule: Q01DX011 (ip), vehicle: saline, higher = larger tumour): 31 % of control and 52 % of control
T/C (endpoint: mean tumor weight, dose: 4.0 mg/kg/injection, schedule: Q01DX011 (ip), vehicle: saline, higher = larger tumour): 36 % of control
